We go through 15 compounds from PubChem BioAssay (NCI).

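Dose response: 5 concentrations. Exposure: 48 h. Format: 96-well plates. Endpoint: linear interpolation; highest concentration if not reached. The concentration for 50% growth inhibition is given as GI50. Definition used: TGI = concentration required for complete inhibition of growth.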 Where only a bound is given, the exact number is not on record here.

Holding throughout (test): NCI tumour cell line growth inhibition, 48 h
The test system of assay [1] is COLO 205 colon.
Assay [2] relates to T-47D breast.
For assay [3], the system named is CAKI-1 renal.
Assay [4] relates to SN12C renal.
Assay [5] concerns CCRF-CEM leukemia.
In assay [6] the test system is M14 melanoma.
The test system of assay [7] is OVCAR-5 ovarian.
In assay [8] the test system is ACHN renal.
In assay [9] the test system is HCT-116 colon.
Assay [10] deals with NCI-H522 lung.

For the compound `CCN(CC)S(=O)(=O)c1ccc(OC)c(Nc2ncc(-c3ccccc3)o2)c1`, the GI50 in [1] is above 25 µM; in [2], above 11 µM; in assay [3] it was above 25 µM; in [4] it was above 22.7 µM; in assay [5] it was above 19.3 µM; in [6], above 25 µM. In addition, the GI50 is above 21.7 µM in assay [7], above 22.7 µM in assay [8], above 17.9 µM in assay [9] and above 16.9 µM in [10]. The TGI was above 25 µM in assay [1]; 24.4 µM in assay [2]; above 25 µM in assay [3]; above 25 µM in [4]; above 25 µM in assay [5]; above 25 µM in assay [6]. In addition, the TGI in assay [7], in [8], in assay [9] and in [10] was above 25 µM throughout.
For the compound `COC(=O)/C=C/C=C(c1ccccc1)c1ccccc1`, the GI50 is 3.57 µM in assay [1]; 3.16 µM in [2]; 3.05 µM in assay [3]; 7.83 µM in assay [4]; 6.48 µM in [5]; 3.36 µM in assay [6]. In addition, the GI50 in assay [7] is 14 µM; in assay [8], 5.56 µM; in [9], 3.68 µM; in assay [10], 5.88 µM. For the same compound, the TGI in assay [1] is 13.9 µM; in [2] it was above 100 µM; in assay [3], 10.4 µM; in assay [4] it was above 100 µM; in assay [5], above 100 µM; in assay [6], 17.5 µM. Further, the TGI in [7] was above 100 µM; in [8], above 100 µM; in [9], 18.9 µM; in assay [10], 78.1 µM.
On to `CNC(=O)n1ccc2cc(Oc3ccnc(NC(=O)c4ccc(C5CCN(CCO)CC5)cc4)c3)c(OCCOC)cc21`, for which the GI50 was 2.83 µM in assay [1]; 11.8 µM in assay [2]; 3.08 µM in assay [3]; 13.5 µM in assay [4]; 2.8 µM in assay [5]; 1.98 µM in assay [6]. In addition, the GI50 is 8.43 µM in assay [7], 3.16 µM in assay [8], 2.63 µM in [9] and 3.09 µM in assay [10]. Besides, the TGI was 8.6 µM in assay [1]; 36 µM in assay [2]; 11.3 µM in assay [3]; 27.9 µM in assay [4]; above 100 µM in assay [5]; 4.24 µM in assay [6]. The TGI worked out at 22.7 µM in [7], 10.7 µM in assay [8], 11.9 µM in [9] and 11 µM in assay [10].
For `CNC(=O)c1cncc(/C=C/c2ccccc2C)c1`, the GI50 in [1], in assay [2], in assay [3], in assay [4], in [5] and in assay [6] was above 25 µM each time. The GI50 in [7], in [8], in [9] and in [10] was above 25 µM in each case. In addition, the TGI in [1], in assay [2], in assay [3], in assay [4], in assay [5] and in assay [6] was above 25 µM throughout. The TGI in assay [7], in assay [8], in assay [9] and in assay [10] was above 25 µM each time.
In the case of `C=CCc1c2c(c(OC)c3ccoc13)C(=O)/C(=C/c1ccccc1OC)O2`, the GI50 in [1] was 7.64 µM; in assay [2] it was 4.34 µM; in [3], 3.15 µM; in assay [4] it was 4.85 µM; in [5], 3.44 µM; in assay [6], 8.19 µM. The GI50 in assay [7] was 3.57 µM; in assay [8] it was 4.33 µM; in assay [9] it was 3.29 µM; in assay [10], 3.16 µM. The TGI in assay [1] was 69.5 µM; in assay [2] it was above 100 µM; in [3] it was 35.2 µM; in assay [4], above 100 µM; in [5], above 100 µM; in assay [6], above 100 µM. Besides, the TGI was above 100 µM in assay [7], above 100 µM in assay [8], above 100 µM in assay [9] and 31.7 µM in [10].
Turning to `COc1cc(C2c3cc4c(cc3OC(N3CCCC3)C2C)OCO4)cc(OC)c1OC` (centres undefined), the TGI is 1.03 µM in [1]; above 100 µM in assay [2]; 12 µM in assay [3]; 28 µM in assay [4]; above 51.9 µM in [5]; 12.8 µM in assay [6]. Further, the TGI is above 47.9 µM in assay [7], 38.3 µM in [8], 27.7 µM in [9] and 1.55 µM in assay [10].
Consider `Cc1sc(C(=O)Nc2cc(C(=O)NCCCN(C)C)n(C)c2)cc1NC(=O)CCCN1C(=O)c2cccc3cccc(c23)C1=O`, for which the GI50 in assay [1], in assay [2], in assay [3], in assay [4], in [5] and in [6] was above 100 µM in each case. For the same compound, the GI50 in assay [7], in assay [8], in [9] and in assay [10] was above 100 µM throughout. The TGI in [1], in assay [2], in [3], in assay [4], in [5] and in [6] was above 100 µM in each case. Also, the TGI in assay [7], in [8], in assay [9] and in assay [10] was above 100 µM throughout.
On to `CC/C=C\C=C/C(=O)N/C=C/CC1Cc2cccc(O)c2C(=O)O1` (centres undefined), for which the GI50 was 20.3 µM in [1]; 36.1 µM in assay [2]; 17.3 µM in [3]; 17.8 µM in assay [4]; 15 µM in assay [5]; 22.7 µM in assay [6]. Further, the GI50 is 32.5 µM in assay [7], 22.3 µM in assay [8], 19.1 µM in assay [9] and 19.5 µM in assay [10]. Besides, the TGI was 41.2 µM in [1]; above 100 µM in [2]; 36.3 µM in [3]; 38.1 µM in [4]; 39.9 µM in [5]; 64.2 µM in assay [6]. Further, the TGI in [7] was 99.4 µM; in [8], 52.1 µM; in assay [9], 42.2 µM; in assay [10], 55.2 µM.
Take `COC1(C(=O)N[C@@H](C)c2ccc(-n3cc(F)cn3)nc2)CCC(c2nc(C)cc(Nc3cc(C)[nH]n3)n2)CC1` (some centres undefined): the GI50 in [1] is 3.83 µM; in [2], 2.17 µM; in [3] it was 0.889 µM; in assay [4], 0.581 µM; in [5], 11 µM; in assay [6], 3.03 µM. Moreover, the GI50 in [7] was 1.4 µM; in assay [8] it was 1.01 µM; in assay [9] it was 2.61 µM; in [10] it was 2.26 µM. The TGI in [1] is 23.7 µM; in assay [2], 21.7 µM; in assay [3], 2.23 µM; in assay [4], 12.4 µM; in assay [5], above 100 µM; in assay [6], 17.7 µM. The TGI in assay [7] is 12.5 µM; in assay [8], 3.49 µM; in [9] it was 14 µM; in assay [10], 16.7 µM.
For `Cc1ccc2c(ccc3c[n+]4c5ccccc5ccc4n32)c1`, the GI50 was 0.485 µM in assay [1]; 0.618 µM in [2]; 8.25 µM in [3]; 0.297 µM in assay [4]; 2.46 µM in [5]; 1.35 µM in assay [6]. Also, the GI50 in assay [7] is 4.42 µM; in assay [8] it was 4.12 µM; in assay [9], 1.85 µM; in [10], 1.09 µM. Moreover, the TGI in assay [1] was 2.35 µM; in assay [2], 3.59 µM; in [3] it was above 100 µM; in [4], 2.5 µM; in [5], 10.6 µM; in [6], 4.68 µM. In addition, the TGI in assay [7] was 45.1 µM; in assay [8], above 100 µM; in [9] it was 7.51 µM; in assay [10], 3.8 µM.
For `Cc1ccc(/C=C2\CN(C(=O)OC(C)(C)C)C/C(=C\c3ccc(C)cc3)C2=O)cc1`, the GI50 in assay [1] was 0.597 µM; in assay [3] it was 0.576 µM; in assay [4], 0.393 µM; in assay [5] it was 0.587 µM; in assay [6], 0.0608 µM; in assay [7] it was 0.391 µM. For the same compound, the GI50 in assay [8] was 1.06 µM; in [9] it was 0.058 µM; in [10], 0.159 µM. In addition, the TGI in assay [1] was 4.08 µM; in [2] it was above 100 µM; in [3], above 100 µM; in [4], above 100 µM; in assay [5], above 100 µM; in assay [6], above 100 µM. In addition, the TGI in assay [7] is above 100 µM; in assay [8], above 100 µM; in assay [9], 13.7 µM; in assay [10] it was above 100 µM.
As for `CN1CCN(CCc2cccc(C(=O)c3cnn(-c4ccc(F)cc4)c3N)c2)CC1`, the GI50 in assay [1], in assay [2], in assay [3], in assay [4], in assay [5] and in [6] was above 25 µM each time. For the same compound, the GI50 in [7], in assay [8], in assay [9] and in assay [10] was above 25 µM throughout. The TGI in [1], in assay [2], in [3], in assay [4], in assay [5] and in assay [6] was above 25 µM each time. Moreover, the TGI in assay [7], in assay [8], in [9] and in [10] was above 25 µM each time.
Turning to `Cc1[c-]onc1C.Cc1[c-]onc1C.[Ag].[Ag].[NH-]S(=O)(=O)c1ccc(N=Nc2cc(N=Nc3ccc(S([NH-])(=O)=O)cc3)c3c(NC(=O)C(Cl)Cl)cccc3c2OC(=O)C(Cl)Cl)cc1`, the GI50 in assay [1] is 5.15 µM; in assay [2] it was 2.1 µM; in [3], 7.12 µM; in [4], 14.9 µM; in assay [5], 9.28 µM; in assay [6], 8.18 µM. Besides, the GI50 in [7] was 9.92 µM; in assay [8] it was 5.13 µM; in assay [9] it was 5.12 µM; in [10], 1.75 µM. For the same compound, the TGI was 30.4 µM in [1]; 17.4 µM in assay [2]; 14.2 µM in assay [3]; above 50 µM in [4]; 32.7 µM in assay [5]; 18.4 µM in assay [6]. Besides, the TGI in [7] was 19 µM; in [8], 11.9 µM; in assay [9], 18.2 µM; in [10] it was 14 µM.
In the case of `CC1(C)SC2C(NC(=O)C(N)c3ccccc3)C(=O)N2C1C(=O)O` (centres undefined), the TGI in assay [1], in assay [2], in assay [3], in assay [4], in [5] and in assay [6] was above 100 µM throughout. In addition, the TGI in assay [7], in [8], in assay [9] and in assay [10] was above 100 µM each time.
Consider `CC(C)(C)C[C@H]1NC(C(=O)NCC[C@H](O)CO)[C@H](c2cccc(Cl)c2)[C@@]12C(=O)Nc1cc(Cl)c(F)cc12` (some centres undefined), for which the GI50 was 16.1 µM in [1]; 16.7 µM in [2]; 3.84 µM in assay [3]; 19.8 µM in assay [4]; 17.7 µM in [5]; 16.6 µM in assay [6]. The GI50 in [7] was 15.5 µM; in assay [8], 3.28 µM; in [9], 3.07 µM; in assay [10], 14.3 µM. The TGI stood at 30.7 µM in [1]; 37.7 µM in assay [2]; 18.1 µM in [3]; 46.8 µM in [4]; 45.9 µM in [5]; 33.7 µM in assay [6]. The TGI came to 31.8 µM in assay [7], 16.3 µM in [8], 16.3 µM in [9] and 30 µM in assay [10].
